{"source": "paper PMC2882332", "about": "“Species Used for Drug Testing Reveal Different Inhibition Susceptibility for 17beta-Hydroxysteroid Dehydrogenase Type 1” (PLoS ONE, 2010)", "key": {"mouse 17β-HSD 1": {"target": "T1, mouse 17β-HSD 1 (Mus musculus, UniProt P51656)", "T1 construct": "Full length cDNAs of several 17β-HSDs type 1 originating from different species were cloned; made in house; host or cells: E.coli BL21 DE3 Codon Plus RP", "T1 sequence (P51656 1-344)": "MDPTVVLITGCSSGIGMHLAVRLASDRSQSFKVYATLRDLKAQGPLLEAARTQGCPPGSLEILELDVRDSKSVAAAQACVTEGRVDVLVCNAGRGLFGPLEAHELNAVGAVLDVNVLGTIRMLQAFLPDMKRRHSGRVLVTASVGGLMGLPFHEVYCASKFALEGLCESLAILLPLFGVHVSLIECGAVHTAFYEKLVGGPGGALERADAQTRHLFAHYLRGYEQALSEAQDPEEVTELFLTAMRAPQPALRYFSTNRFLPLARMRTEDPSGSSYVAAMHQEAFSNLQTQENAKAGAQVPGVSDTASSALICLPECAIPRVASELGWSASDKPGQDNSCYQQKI", "assay": "In vitro enzymatic activity, recombinant mouse 17β-HSD 1", "format": "biochemical", "conditions": "2 µM compound, 15 nM 3H-estrone, read-out: Observed % inhibition", "text": "(§1) Full length cDNAs of several 17β-HSDs type 1 originating from different species were cloned either into the pQE30 vector (human 17β-HSD 1, coding for acc. no. NP_000404) for expression as His-Tag protein or into a modified pGex-2T vector [63] (mouse 17β-HSD 1, acc. no. NP_034605; rat 17β-HSD 1, acc. no. NP_036983; marmoset 17β-HSD 1, acc. no. AAG01115; porcine 17β-HSD 1, acc. no. NP_001121944) for expression as GST-fusion proteins. The marmoset 17β-HSD 1 enzyme sequence was updated by the missing N-terminal part (AF272013) and the new porcine sequence was submitted to GenBank (NP_001121944). Human 17β-HSDs 2, 4, 5 (AKR1C3, the latter kindly provided by Dr. T. Penning) and 7 were all cloned into the modified pGEX-2T vector. For 17β-HSD 4 only the SDR-domain converting the steroids was subcloned. Plasmids were transformed into E.coli BL21 DE3 Codon Plus RP (Stratagene) and enzyme expression was induced by 0.5 mM IPTG. After 4h incubation at 37°C with continuous shaking bacteria were pelleted by centrifugation at 10.000×g. Pellets were stored until use at −20°C.\n(§2) The bacteria containing recombinant enzymes were resuspended in PBS and enzymatic assays were performed in 100 mM sodium phosphate buffer at pH 6.6 for the reductive reaction and at pH 7.7 for the oxidative reaction. […] All substrates were purchased from NEN/Perkin Elmer. The cofactors NADPH (Sigma; for reductive reactions) and NAD^+ (Serva, for oxidative reactions) were used at final concentrations of 0.5 mg/ml. […] The incubation at 37°C was stopped with 0.21 M ascorbic acid in methanol∶acetic acid 99∶1 (v∶v) after the time needed to convert approximately 30% of the substrate in a control assay with 1% DMSO, without inhibitor candidates. […] The solvent used was acetonitrile∶water (43∶57, v∶v) at a flow rate of 1 ml/min. Radioactivity was detected by online-scintillation counting (Berthold LB506D) after mixing with ReadyFlowIII (Beckman). Conversion was calculated from integration of substrate and product peaks. […] All assays were run in duplicates of two independent experiments and mean values are reported. The IC50 values were determined by the One Ligand Binding model of SigmaPlot kinetics module."}, "human 17β-HSD 4": {"target": "T2, human 17β-HSD 4 (Homo sapiens, UniProt P51659)", "T2 construct": "For 17β-HSD 4 only the SDR-domain converting the steroids was subcloned; made in house; host or cells: E.coli BL21 DE3 Codon Plus RP", "T2 sequence (P51659 1-305 limits assumed)": "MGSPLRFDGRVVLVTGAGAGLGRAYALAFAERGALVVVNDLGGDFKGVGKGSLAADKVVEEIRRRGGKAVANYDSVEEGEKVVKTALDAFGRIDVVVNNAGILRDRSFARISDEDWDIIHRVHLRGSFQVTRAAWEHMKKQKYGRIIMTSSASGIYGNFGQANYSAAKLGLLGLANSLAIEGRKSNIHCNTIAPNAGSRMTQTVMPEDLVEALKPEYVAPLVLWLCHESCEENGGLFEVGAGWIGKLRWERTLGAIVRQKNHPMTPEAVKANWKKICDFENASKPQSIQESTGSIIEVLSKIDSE", "assay": "In vitro enzymatic activity, recombinant human 17β-HSD 4 SDR-domain (estradiol oxidation)", "format": "biochemical", "conditions": "2 µM compound, 21 nM 3H-estradiol, NAD+, pH 7.7", "text": "as §1, §2"}, "human 17β-HSD 7": {"target": "T3, human 17β-HSD 7 (Homo sapiens, UniProt P56937)", "T3 construct": "made in house; host or cells: E.coli BL21 DE3 Codon Plus RP", "T3 sequence (P56937 1-341)": "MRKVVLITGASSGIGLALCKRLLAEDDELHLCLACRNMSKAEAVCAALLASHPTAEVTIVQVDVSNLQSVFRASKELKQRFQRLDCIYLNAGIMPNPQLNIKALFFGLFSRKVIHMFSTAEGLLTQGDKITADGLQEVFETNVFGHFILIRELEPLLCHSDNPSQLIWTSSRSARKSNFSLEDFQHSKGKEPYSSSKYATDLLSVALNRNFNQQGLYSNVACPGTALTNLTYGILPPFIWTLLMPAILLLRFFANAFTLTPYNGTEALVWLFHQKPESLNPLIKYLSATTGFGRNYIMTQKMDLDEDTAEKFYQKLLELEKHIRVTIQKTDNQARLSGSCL", "assay": "In vitro enzymatic activity, recombinant human 17β-HSD 7 (estrone reduction)", "format": "biochemical", "conditions": "2 µM compound, 15 nM 3H-estrone, NADPH, pH 6.6, read-out: Observed % inhibition", "text": "as §1, §2"}, "human 17β-HSD 1": {"target": "T4, human 17β-HSD 1 (Homo sapiens, UniProt P14061)", "T4 construct": "Full length cDNAs of several 17β-HSDs type 1 originating from different species were cloned; made in house; host or cells: E.coli BL21 DE3 Codon Plus RP", "T4 sequence (P14061 1-328)": "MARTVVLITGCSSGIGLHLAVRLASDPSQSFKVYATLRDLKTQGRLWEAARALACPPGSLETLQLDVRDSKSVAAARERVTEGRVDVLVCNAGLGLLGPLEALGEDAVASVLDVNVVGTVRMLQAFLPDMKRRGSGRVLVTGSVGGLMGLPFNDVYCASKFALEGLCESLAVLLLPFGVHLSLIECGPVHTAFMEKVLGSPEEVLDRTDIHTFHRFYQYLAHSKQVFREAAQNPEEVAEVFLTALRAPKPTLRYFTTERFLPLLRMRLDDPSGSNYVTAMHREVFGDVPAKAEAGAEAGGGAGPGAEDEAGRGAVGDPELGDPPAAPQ", "assay": "In vitro enzymatic activity, recombinant human 17β-HSD 1 (estrone reduction)", "format": "biochemical", "conditions": "for inhibition of the human 17β-HSD 1 reductive activity (in words) / specificity for human 17β-HSD 1 over human 17β-HSD 2, 4, 5 and 7 (in words): 2 µM; for inhibition of the human 17β-HSD 1 reductive activity (in words): Figure 2; for specificity for human 17β-HSD 1 over human 17β-HSD 2, 4, 5 and 7 (in words): Figure 2, Table 3; for IC50: Human 17β-HSD 1, 0.005 µM to 5 µM inhibitor; for inhibition at 2 µM: human 17β-HSD 1, 2 µM compound, 15 nM 3H-estrone, NADPH, pH 6.6, read-out: Observed % inhibition", "text": "as §1, §2"}, "[1]": {"test_system": "17β-HSD 1 orthologs of five species", "assay": "In vitro enzymatic activity, 17β-HSD 1 orthologs of five species taken together", "format": "biochemical, human, marmoset, mouse, pig, rat", "conditions": "average over the 17β-HSD 1 orthologs of the species; 2 µM compound"}}, "note": "Entries after “also recorded” stand apart in the source; their conditions may differ."}
{"smiles": "C[C@]12CC[C@@H]3c4ccc(O)cc4CC[C@H]3[C@@H]1[C@@H](CCCC(=O)N1CCOCC1)CC2=O", "note": "[Compound 2]", "values": [{"measurement": "inhibition at 2 µM", "setting": "mouse 17β-HSD 1", "result": -1.5, "unit": "%"}, {"measurement": "Observed % inhibition", "setting": "human 17β-HSD 4", "result": 0.1, "unit": "%"}, {"measurement": "inhibition at 2 µM", "setting": "human 17β-HSD 7", "result": -7.1, "unit": "%"}, {"measurement": "inhibition of the human 17β-HSD 1 reductive activity (in words)", "setting": "human 17β-HSD 1", "result": "high inhibition"}, {"measurement": "specificity for human 17β-HSD 1 over human 17β-HSD 2, 4, 5 and 7 (in words)", "setting": "human 17β-HSD 1", "result": "very low inhibition of the other human 17β-HSDs; also recorded: most specific inhibitors"}, {"measurement": "IC50", "setting": "human 17β-HSD 1", "result": 87.4, "unit": "nM"}, {"measurement": "inhibition at 2 µM", "setting": "human 17β-HSD 1", "result": 94.7, "unit": "%"}, {"measurement": "Observed % inhibition, average", "setting": "[1]", "result": 52.2, "unit": "%"}]}
{"smiles": "COc1ccc(-c2cn(CCC[C@H]3CC(=O)[C@@]4(C)CC[C@@H]5c6ccc(O)cc6CC[C@H]5[C@H]34)nn2)cc1", "note": "[Compound 4]", "values": [{"measurement": "inhibition at 2 µM", "setting": "mouse 17β-HSD 1", "result": 18.5, "unit": "%"}, {"measurement": "Observed % inhibition", "setting": "human 17β-HSD 4", "result": 5.5, "unit": "%"}, {"measurement": "inhibition at 2 µM", "setting": "human 17β-HSD 7", "result": -5.8, "unit": "%"}, {"measurement": "inhibition at 2 µM", "setting": "human 17β-HSD 1", "result": 95.8, "unit": "%"}, {"measurement": "Observed % inhibition, average", "setting": "[1]", "result": 57.0, "unit": "%"}]}
{"smiles": "C[C@]12CC[C@@H]3c4ccc(O)cc4CC[C@H]3[C@@H]1[C@@H](CNC(=O)c1ccc(F)cc1)CC2=O", "note": "[Compound 1]", "values": [{"measurement": "inhibition at 2 µM", "setting": "mouse 17β-HSD 1", "result": 27, "unit": "%"}, {"measurement": "Observed % inhibition", "setting": "human 17β-HSD 4", "result": 7.2, "unit": "%"}, {"measurement": "inhibition at 2 µM", "setting": "human 17β-HSD 7", "result": -3.6, "unit": "%"}, {"measurement": "specificity for human 17β-HSD 1 over human 17β-HSD 2, 4, 5 and 7 (in words)", "setting": "human 17β-HSD 1", "result": "most specific inhibitors"}, {"measurement": "inhibition at 2 µM", "setting": "human 17β-HSD 1", "result": 63.6, "unit": "%"}, {"measurement": "Observed % inhibition, average", "setting": "[1]", "result": 42.1, "unit": "%"}]}
{"smiles": "Cc1cnc(NC(=O)CC[C@@H]2CC(=O)[C@@]3(C)CC[C@@H]4c5ccc(O)cc5CC[C@H]4[C@H]23)s1", "note": "[Compound 3]", "values": [{"measurement": "inhibition at 2 µM", "setting": "mouse 17β-HSD 1", "result": 27, "unit": "%"}, {"measurement": "Observed % inhibition", "setting": "human 17β-HSD 4", "result": 2.1, "unit": "%"}, {"measurement": "inhibition at 2 µM", "setting": "human 17β-HSD 7", "result": -9, "unit": "%"}, {"measurement": "inhibition of the human 17β-HSD 1 reductive activity (in words)", "setting": "human 17β-HSD 1", "result": "high inhibition"}, {"measurement": "specificity for human 17β-HSD 1 over human 17β-HSD 2, 4, 5 and 7 (in words)", "setting": "human 17β-HSD 1", "result": "very low inhibition of the other human 17β-HSDs; also recorded: most specific inhibitors"}, {"measurement": "IC50", "setting": "human 17β-HSD 1", "result": 1.3, "unit": "nM"}, {"measurement": "inhibition at 2 µM", "setting": "human 17β-HSD 1", "result": 97.9, "unit": "%"}, {"measurement": "Observed % inhibition, average", "setting": "[1]", "result": 66.7, "unit": "%"}]}
{"smiles": "C[C@]12CC[C@@H]3c4ccc(O)cc4CC[C@H]3[C@@H]1C[C@H](CC(=O)NCc1cccnc1)C2=O", "note": "[Compound 5, reference compound]", "values": [{"measurement": "inhibition at 2 µM", "setting": "mouse 17β-HSD 1", "result": 3.2, "unit": "%"}, {"measurement": "Observed % inhibition", "setting": "human 17β-HSD 4", "result": 5.6, "unit": "%"}, {"measurement": "inhibition at 2 µM", "setting": "human 17β-HSD 7", "result": 0, "unit": "%"}, {"measurement": "inhibition at 2 µM", "setting": "human 17β-HSD 1", "result": 100, "unit": "%"}, {"measurement": "Observed % inhibition, average", "setting": "[1]", "result": 48.4, "unit": "%"}]}
